Common to all, as to assay: growth of human tumour cells (NCI), 48 h
The subject of experiment [1] is A549.
In experiment [2] the test system is ACHN.
In experiment [3] the test system is COLO 205.
Experiment [4] relates to HOP-92.
Experiment [5] has as its system KM12.
In experiment [6] the test system is M14.
For experiment [7], the system named is MOLT-4.
The subject of experiment [8] is Malme-3M.
For experiment [9], the system named is NCI-H226.
Experiment [10] has as its system OVCAR-5.
Experiment [11] has as its system OVCAR-8.
In experiment [12] the test system is RPMI-8226.
The subject of experiment [13] is SF-268.
Experiment [14] deals with SF-539.
The test system of experiment [15] is SK-MEL-28.
Experiment [16] deals with SK-MEL-2.
Experiment [17] deals with SN12C.
Experiment [18] deals with U-251.
In experiment [19] the test system is UACC-257.

Molecules are shown by their SMILES.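 Five concentrations, 48 hours, 96-well plates. GI50 is the concentration that inhibits growth by half.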 Calls of active or inactive are those of the source. Rule as the data show it: active = GI50 up to about 1.1 µM and inactive = higher. A value given as a limit tells only on which side of the number the result lay.

For the molecule `Cc1cnc2c(c1)C(=O)C1=C(C2=O)C2OC(=O)CC2OC1(C)C` (stereo not drawn), the GI50 is 1.53 µM (inactive) in experiment [1]; 0.107 µM (active) in experiment [2]; 0.0462 µM (active) in [3]; 0.121 µM (active) in [4]; 0.431 µM (active) in experiment [5]; 0.254 µM (active) in experiment [6]. Further, the GI50 in experiment [7] is 0.0776 µM (active); in experiment [8], 0.0736 µM (active); in experiment [9], 0.979 µM (active); in experiment [10] it was 0.301 µM (active); in experiment [11], 0.29 µM (active); in experiment [12], 0.188 µM (active). Besides, the GI50 in [13] was 0.223 µM (active); in experiment [14], 0.237 µM (active); in experiment [15] it was 0.684 µM (active); in experiment [16] it was 0.964 µM (active); in [17] it was 0.161 µM (active); in experiment [18], 0.109 µM (active). The GI50 in experiment [19] was 0.198 µM (active).
Take `COC(=O)C(Cc1nc2ccccc2nc1O)C(=O)C(=O)Nc1ccc(OC)cc1[N+](=O)[O-]` (stereo not drawn): the GI50 in experiment [1] was > 100 µM (inactive); in [2] it was > 100 µM (inactive); in experiment [3] it was > 100 µM (inactive); in experiment [4], 96.2 µM (inactive); in [5] it was > 100 µM (inactive); in experiment [6] it was > 100 µM (inactive). Also, the GI50 in [7], in experiment [8], in [9], in experiment [10], in [11] and in [12] was > 100 µM (inactive) in each case. In addition, the GI50 in [13], in experiment [14], in experiment [15], in experiment [16], in experiment [17] and in [18] was > 100 µM (inactive) each time. Also, the GI50 in experiment [19] was > 100 µM (inactive).
For `S=C(N/N=C(/c1ccccc1)c1ccccn1)Nc1ccc(Cl)cc1`, the GI50 in [1] is 1.97 µM (inactive); in experiment [2], 0.322 µM (active); in experiment [3] it was 0.0418 µM (active); in experiment [4], 2.11 µM (inactive); in [5], 1.07 µM (active); in experiment [6], 0.03 µM (active). Also, the GI50 was < 0.0171 µM (active) in experiment [7]; 0.109 µM (active) in [8]; 0.542 µM (active) in [9]; 0.0705 µM (active) in experiment [10]; 0.0444 µM (active) in experiment [11]; < 0.0221 µM (active) in experiment [12]. Besides, the GI50 was 0.236 µM (active) in experiment [13]; 1.45 µM (inactive) in [14]; 2.28 µM (inactive) in experiment [15]; 0.455 µM (active) in experiment [16]; 0.211 µM (active) in [17]; 0.124 µM (active) in experiment [18]. The GI50 in experiment [19] was 0.0569 µM (active).
For the molecule `Cn1c2ccccc2c2c3c(=O)[nH][nH]c(=O)c3c3c4ccccc4n(C)c3c21`, the GI50 is > 100 µM (inactive) in experiment [1]; > 100 µM (inactive) in [2]; > 89.1 µM (inactive) in experiment [3]; > 100 µM (inactive) in experiment [4]; 30.1 µM (inactive) in experiment [5]; > 84.5 µM (inactive) in experiment [6]. Further, the GI50 is > 100 µM (inactive) in experiment [7]; > 100 µM (inactive) in experiment [8]; > 100 µM (inactive) in experiment [9]; > 100 µM (inactive) in [10]; > 100 µM (inactive) in experiment [11]; 13.6 µM (inactive) in experiment [12]. Also, the GI50 in experiment [13], in experiment [14], in experiment [15], in experiment [16], in experiment [17] and in [18] was > 100 µM (inactive) each time. Moreover, in experiment [19], the GI50 was > 100 µM (inactive).
Take `CS(=O)(=O)N1CC(CCl)c2ccc(NO)cc21` (stereo not drawn): the GI50 in [1] was 35.2 µM (inactive); in experiment [2], 7.94 µM (inactive); in experiment [3], 18 µM (inactive); in experiment [4], 14.4 µM (inactive); in experiment [5] it was 14.6 µM (inactive); in [6] it was 16.2 µM (inactive). For the same molecule, the GI50 in experiment [7] was 3.48 µM (inactive); in experiment [8] it was 19.1 µM (inactive); in experiment [9] it was 30 µM (inactive); in experiment [10], 15.1 µM (inactive); in experiment [11], 12.9 µM (inactive); in [12] it was 4.5 µM (inactive). In addition, the GI50 in [13] is 5.22 µM (inactive); in experiment [14], 10.2 µM (inactive); in [15] it was 19.1 µM (inactive); in experiment [16] it was 17.7 µM (inactive); in experiment [17], 15.3 µM (inactive); in experiment [18], 11.4 µM (inactive). Further, the GI50 in [19] was 19.5 µM (inactive).
With `CC(=O)O[C@H]1CC(C)(C)C(=C=C/C(C)=C/C=C/C=C/C=C(C)/C=C2C=C(/C=C/[C@@]34O[C@]3(C)C[C@@H](O)CC4(C)C)C(=O)O/2)[C@](C)(O)C1`, the GI50 in experiment [1] was 11.5 µM (inactive); in experiment [2] it was 19.3 µM (inactive); in [3], 19.6 µM (inactive); in experiment [4], 12.6 µM (inactive); in experiment [5], 5.4 µM (inactive); in experiment [6], 11.7 µM (inactive). In addition, the GI50 in experiment [7] is 3.85 µM (inactive); in [8], 16.7 µM (inactive); in experiment [9], 1.62 µM (inactive); in [10], 19.1 µM (inactive); in experiment [11] it was 3.76 µM (inactive); in [12], 4.38 µM (inactive). Besides, the GI50 is 15 µM (inactive) in [13]; 17.8 µM (inactive) in experiment [14]; 23.6 µM (inactive) in experiment [15]; 3.31 µM (inactive) in experiment [16]; 11.7 µM (inactive) in experiment [17]; 10.7 µM (inactive) in experiment [18]. Moreover, the GI50 in experiment [19] is 12.8 µM (inactive).
For `C/C(=N/NC(=S)Nc1cccc(C)c1)c1ccccn1`, the GI50 in experiment [1] is 1.87 µM (inactive); in experiment [2] it was < 0.0481 µM (active); in experiment [3] it was < 0.01 µM (active); in experiment [4], 1.17 µM (inactive); in [5], 0.141 µM (active); in experiment [6], < 0.013 µM (active). The GI50 in [7] was < 0.01 µM (active); in [8], 0.319 µM (active); in [9], 0.0582 µM (active); in [10], 0.0392 µM (active); in experiment [11] it was < 0.0183 µM (active); in experiment [12] it was < 0.01 µM (active). Further, the GI50 in experiment [13] was 0.21 µM (active); in [14] it was 1.57 µM (inactive); in [15], 1.71 µM (inactive); in experiment [16] it was 1.68 µM (inactive); in experiment [17] it was 0.226 µM (active); in experiment [18], 0.0208 µM (active). The GI50 in experiment [19] is < 0.01 µM (active).
Consider `COC(=O)c1cc(O)c(O)c(O)c1-c1c(O)c(O)c(O)c(SC[C@H](NC(=O)OCc2ccccc2)C(=O)OCc2ccccc2)c1C(=O)OC`, for which the GI50 in [1] was 17.9 µM (inactive); in [2] it was 22.5 µM (inactive); in [3], 22.6 µM (inactive); in experiment [4] it was 26.2 µM (inactive); in [5] it was 31.9 µM (inactive); in experiment [6], 17.9 µM (inactive). Also, the GI50 is 17.6 µM (inactive) in experiment [7]; 78.5 µM (inactive) in [8]; 21.2 µM (inactive) in experiment [9]; 33.9 µM (inactive) in experiment [10]; 21.2 µM (inactive) in experiment [11]; 21.8 µM (inactive) in experiment [12]. Besides, the GI50 in [13] was 25.9 µM (inactive); in [14], 28.4 µM (inactive); in experiment [15], 30.1 µM (inactive); in experiment [16], 19.9 µM (inactive); in experiment [17], 19.4 µM (inactive); in experiment [18], 16.4 µM (inactive). Besides, the GI50 in [19] is 32.8 µM (inactive).
`COC(=O)c1nc2c(C)c(O)c(O)c([C@H](C)CCC=C(C)C)c2o1`: the GI50 is 27.9 µM (inactive) in experiment [1]; 22.6 µM (inactive) in experiment [2]; 16.2 µM (inactive) in [3]; 26.5 µM (inactive) in [4]; 23.3 µM (inactive) in [5]; 37.3 µM (inactive) in experiment [6]. The GI50 was 24.9 µM (inactive) in [7]; 26.7 µM (inactive) in [8]; 17.9 µM (inactive) in [9]; 58.6 µM (inactive) in experiment [10]; 38.5 µM (inactive) in experiment [11]; 13 µM (inactive) in experiment [12]. The GI50 in experiment [13] is 33.3 µM (inactive); in experiment [14], 20 µM (inactive); in [15], 32.7 µM (inactive); in experiment [16], 20.5 µM (inactive); in experiment [18] it was 28.5 µM (inactive); in [19] it was 28.4 µM (inactive).
In the case of `CC1(C)N=C2C(=O)c3c([nH]c4ccccc34)[C@]3(C)CCC1CC23` (stereo partly drawn), the GI50 in experiment [1], in [2], in experiment [3], in [4], in experiment [5] and in experiment [7] was > 6.25 µM (inactive) each time. Also, the GI50 in experiment [8], in experiment [9], in experiment [10], in [11], in experiment [12] and in experiment [13] was > 6.25 µM (inactive) throughout. Moreover, the GI50 in experiment [14], in experiment [15], in experiment [16], in experiment [17], in experiment [18] and in experiment [19] was > 6.25 µM (inactive) each time.

These data come from ChEMBL document CHEMBL1201862, “PubChem BioAssay data set” (2004).
